Reference: PubChem BioAssay AID256 (DTP/NCI, 2004)
Several values for one entry are separate records, joined by “and”; a condition that tells them apart may be missing. Equal entries are not always repeated. Toxic doses and inconclusive results are not listed. How the source made its calls: active means survival T/C of 150% or more; inactive means T/C below 125% in these data.

Test system: CD2F1 mice, L1210 leukemia ip, survival T/C
Assay: NCI In Vivo Anticancer Drug Screen. Data for tumor model L1210 Leukemia (intraperitoneal) in CD2F1 (CDF1) mice
Details: higher = longer survival
In short: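 Mice carrying a transplanted tumor received test compound or vehicle alone. The value is the measurement in the treated group divided by that in the vehicle-treated control group.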

[1] = endpoint: mean survival time, dose: 100.0 mg/kg/injection, schedule: Q04DX003 (ip), vehicle: saline with Tween-80
[2] = endpoint: mean survival time, dose: 200.0 mg/kg/injection, schedule: Q04DX003 (ip), vehicle: saline with Tween-80
[3] = endpoint: mean survival time, dose: 400.0 mg/kg/injection, schedule: Q04DX003 (ip), vehicle: saline with Tween-80
[4] = endpoint: mean survival time, dose: 100.0 mg/kg/injection, schedule: Q04DX003 (ip), vehicle: saline
[5] = endpoint: mean survival time, dose: 200.0 mg/kg/injection, schedule: Q04DX003 (ip), vehicle: saline
[6] = endpoint: mean survival time, dose: 100.0 mg/kg/injection, schedule: Q04DX002 (ip), vehicle: saline with Tween-80
[7] = endpoint: mean survival time, dose: 100.0 mg/kg/injection, schedule: Q04DX003 (ip), vehicle: saline sonified
[8] = endpoint: mean survival time, dose: 200.0 mg/kg/injection, schedule: Q04DX003 (ip), vehicle: saline sonified
[9] = endpoint: mean survival time, dose: 400.0 mg/kg/injection, schedule: Q04DX003 (ip), vehicle: saline sonified
[10] = endpoint: mean survival time, dose: 100.0 mg/kg/injection, schedule: Q01DX001 (ip), vehicle: saline
[11] = endpoint: mean survival time, dose: 200.0 mg/kg/injection, schedule: Q01DX001 (ip), vehicle: saline
[12] = endpoint: mean survival time, dose: 400.0 mg/kg/injection, schedule: Q01DX001 (ip), vehicle: saline
[13] = endpoint: mean survival time, dose: 100.0 mg/kg/injection, schedule: Q01DX009 (ip), vehicle: Klucel (hydroxypropylcellulose) (HPC)
[14] = endpoint: mean survival time, dose: 200.0 mg/kg/injection, schedule: Q01DX009 (ip), vehicle: Klucel (hydroxypropylcellulose) (HPC)
[15] = endpoint: mean survival time, dose: 400.0 mg/kg/injection, schedule: Q01DX009 (ip), vehicle: Klucel (hydroxypropylcellulose) (HPC)
[16] = endpoint: mean survival time, dose: 400.0 mg/kg/injection, schedule: Q04DX003 (ip), vehicle: saline
[17] = endpoint: mean survival time, dose: 25.0 mg/kg/injection, schedule: Q04DX003 (ip), vehicle: saline with Tween-80
[18] = endpoint: mean survival time, dose: 50.0 mg/kg/injection, schedule: Q04DX003 (ip), vehicle: saline with Tween-80
[19] = endpoint: mean survival time, dose: 100.0 mg/kg/injection, schedule: Q01DX009 (ip), vehicle: saline with Tween-80
[20] = endpoint: mean survival time, dose: 200.0 mg/kg/injection, schedule: Q01DX009 (ip), vehicle: saline with Tween-80
[21] = endpoint: mean survival time, dose: 400.0 mg/kg/injection, schedule: Q01DX009 (ip), vehicle: saline with Tween-80

Measured: T/C

CC(=O)OC1CCC2(C)C3CCC4(C)C(O)CCC4C3CC(O)C2(O)C1 (configuration not stated)
inactive: [1] 90 % of control | [2] 87 % of control | [3] 91 % of control

COc1ccc(C[As+](c2ccccc2)(c2ccccc2)c2ccccc2)cc1
inactive: endpoint: mean survival time, dose: 5.0 mg/kg/injection, schedule: Q01DX001 (ip), vehicle: saline 102 % of control | endpoint: mean survival time, dose: 10.0 mg/kg/injection, schedule: Q01DX001 (ip), vehicle: saline 95 % of control | endpoint: mean survival time, dose: 20.0 mg/kg/injection, schedule: Q01DX001 (ip), vehicle: saline 98 % of control | endpoint: mean survival time, dose: 40.0 mg/kg/injection, schedule: Q01DX001 (ip), vehicle: saline 100 % of control

CCOC(=O)C[n+]1ccccc1
inactive: [4] 107 % of control and 95 % of control | [5] 90 % of control and 89 % of control

CCOC(=O)C(=O)Nc1onc(C)c1NC(=O)C(=O)OCC
inactive: [1] 100 % of control | [2] 107 % of control | [3] 96 % of control

Clc1ccc(-c2ccncc2)cc1
inactive: [6] 101 % of control | endpoint: mean survival time, dose: 200.0 mg/kg/injection, schedule: Q04DX002 (ip), vehicle: saline with Tween-80 108 % of control | endpoint: mean survival time, dose: 400.0 mg/kg/injection, schedule: Q04DX002 (ip), vehicle: saline with Tween-80 103 % of control

O=P(O)(c1ccccc1Br)c1ccccc1Br
inactive: endpoint: mean survival time, dose: 50.0 mg/kg/injection, schedule: Q04DX003 (ip), vehicle: saline 101 % of control | [4] 97 % of control | [5] 94 % of control

Cc1cc(Cc2c(C)c(C)c(Cc3cc(C)cc(C(C)(C)C)c3O)c(C)c2C)c(O)c(C(C)(C)C)c1
inactive: [7] 90 % of control | [8] 88 % of control | [9] 93 % of control

Brc1ccc2ncc3ccccc3c2c1
inactive: [10] 93 % of control | [11] 98 % of control | [12] 96 % of control

O=[N+]([O-])c1ccc(N=Cc2ccc3c(c2)OCO3)c(Br)c1
inactive: [13] 108 % of control | endpoint: mean survival time, dose: 100.0 mg/kg/injection, schedule: Q04DX003 (ip), vehicle: other 108 % of control | [14] 109 % of control | endpoint: mean survival time, dose: 200.0 mg/kg/injection, schedule: Q04DX003 (ip), vehicle: other 103 % of control | [15] 109 % of control | endpoint: mean survival time, dose: 400.0 mg/kg/injection, schedule: Q04DX003 (ip), vehicle: other 103 % of control

Clc1ccc(OCCOc2ccc(Cl)cc2Cl)c(Cl)c1
inactive: [1] 95 % of control | [2] 106 % of control | [3] 100 % of control

CC1CN1C(=O)OCCOC(=O)N1CC1C (configuration not stated)
inactive: endpoint: mean survival time, dose: 200.0 mg/kg/injection, schedule: Q01DX Z (ip), vehicle: saline 120 % of control | endpoint: mean survival time, dose: 300.0 mg/kg/injection, schedule: Q01DX Z (ip), vehicle: saline 117 % of control | endpoint: mean survival time, dose: 450.0 mg/kg/injection, schedule: Q01DX Z (ip), vehicle: saline 117 % of control

CCOC(=O)NC(=O)O
inactive: [10] 114 % of control | [11] 103 % of control | [12] 97 % of control

N#CCCN(CCCN1CCOCC1)C(=S)Nc1cccc(C(F)(F)F)c1
inactive: endpoint: mean survival time, dose: 25.0 mg/kg/injection, schedule: Q04DX002 (ip), vehicle: saline with Tween-80 104 % of control | endpoint: mean survival time, dose: 50.0 mg/kg/injection, schedule: Q04DX002 (ip), vehicle: saline with Tween-80 98 % of control | [6] 106 % of control

O=C(CC(=O)C(F)(F)C(F)(F)C(F)(F)F)C(F)(F)F.O=C(CC(=O)C(F)(F)C(F)(F)C(F)(F)F)C(F)(F)F.O=C(CC(=O)C(F)(F)C(F)(F)C(F)(F)F)C(F)(F)F.O=C(CC(=O)C(F)(F)C(F)(F)C(F)(F)F)C(F)(F)F.[Yb]
inactive: endpoint: median survival time, dose: 50.0 mg/kg/injection, schedule: Q04DX002 (ip), vehicle: saline with Tween-80 100 % of control | endpoint: median survival time, dose: 100.0 mg/kg/injection, schedule: Q04DX002 (ip), vehicle: saline with Tween-80 100 % of control | endpoint: median survival time, dose: 200.0 mg/kg/injection, schedule: Q04DX002 (ip), vehicle: saline with Tween-80 100 % of control | endpoint: median survival time, dose: 400.0 mg/kg/injection, schedule: Q04DX002 (ip), vehicle: saline with Tween-80 100 % of control

O=C(O)CNC(=O)C(CN1CC(=O)OC1c1ccc([N+](=O)[O-])cc1)N1C(=O)c2ccccc2C1=O (configuration not stated)
inactive: [7] 92 % of control | [8] 88 % of control | [9] 92 % of control

OCC(F)(F)C(F)(F)C(F)(F)CO
inactive: [4] 101 % of control | [5] 107 % of control | [16] 104 % of control

O=C(O)c1cc2ccccc2oc1=O
inactive: endpoint: mean survival time, dose: 2.5 mg/kg/injection, schedule: Q01DX009 (ip), vehicle: Klucel (hydroxypropylcellulose) (HPC) 103 % of control | endpoint: mean survival time, dose: 5.0 mg/kg/injection, schedule: Q01DX009 (ip), vehicle: Klucel (hydroxypropylcellulose) (HPC) 108 % of control | endpoint: mean survival time, dose: 10.0 mg/kg/injection, schedule: Q01DX009 (ip), vehicle: Klucel (hydroxypropylcellulose) (HPC) 108 % of control | [17] 104 % of control | [18] 112 % of control

CS(=O)(=O)Nc1ccc(CC#N)cc1
inactive: [19] 98 % of control | [1] 101 % of control | [20] 101 % of control | [2] 107 % of control | [21] 102 % of control | [3] 109 % of control

O=C1C(O)CC(c2ccccc2)N1c1ccccc1 (configuration not stated)
inactive: [1] 95 % of control | [2] 95 % of control | [3] 100 % of control

O=S(O)C(=NC1CCCCC1)NC1CCCCC1
inactive: [19] 90 % of control | [20] 90 % of control | [21] 105 % of control

C[C@]12CCC(=O)C(O)=C1CC[C@@H]1[C@@H]2CC[C@]2(C)C(=O)CC[C@@H]12
inactive: endpoint: mean survival time, dose: 12.5 mg/kg/injection, schedule: Q01DX009 (ip), vehicle: Klucel (hydroxypropylcellulose) (HPC) 103 % of control | endpoint: mean survival time, dose: 25.0 mg/kg/injection, schedule: Q01DX009 (ip), vehicle: Klucel (hydroxypropylcellulose) (HPC) 97 % of control | endpoint: mean survival time, dose: 50.0 mg/kg/injection, schedule: Q01DX009 (ip), vehicle: Klucel (hydroxypropylcellulose) (HPC) 104 % of control | [13] 98 % of control | [14] 91 % of control | [15] 97 % of control

CC1(O)OOC(=O)C1(C)C (configuration not stated)
inactive: endpoint: mean survival time, dose: 5.0 mg/kg/injection, schedule: Q01DX001 (ip), vehicle: saline with Tween-80 91 % of control | endpoint: mean survival time, dose: 10.0 mg/kg/injection, schedule: Q01DX001 (ip), vehicle: saline with Tween-80 91 % of control | endpoint: mean survival time, dose: 20.0 mg/kg/injection, schedule: Q01DX001 (ip), vehicle: saline with Tween-80 92 % of control

O=P(OCc1ccccc1)(N(CCCl)CCCl)N1CCCCC1 (configuration not stated)
inactive: endpoint: mean survival time, dose: 62.5 mg/kg/injection, schedule: Q01DX010 (ip), vehicle: saline 98 % of control | endpoint: mean survival time, dose: 125.0 mg/kg/injection, schedule: Q01DX010 (ip), vehicle: saline 101 % of control | endpoint: mean survival time, dose: 250.0 mg/kg/injection, schedule: Q01DX010 (ip), vehicle: saline 90 % of control

NC(=O)CCC(NC(=O)c1cnc2ccccc2n1)C(=O)O (configuration not stated)
inactive: [10] 97 % of control | [4] 105 % of control | [11] 97 % of control | [5] 100 % of control | [12] 95 % of control | [16] 102 % of control

CN=C(Nc1ccc(OC)c2ccccc12)SC
inactive: endpoint: mean survival time, dose: 100.0 mg/kg/injection, schedule: Q04DX003 (ip), vehicle: Klucel (hydroxypropylcellulose) (HPC) 89 % of control | endpoint: mean survival time, dose: 200.0 mg/kg/injection, schedule: Q04DX003 (ip), vehicle: Klucel (hydroxypropylcellulose) (HPC) 91 % of control

CN(C)C(c1ccccc1)P(=O)(O)O (configuration not stated)
inactive: [4] 98 % of control | [5] 101 % of control | [16] 98 % of control

CCOC(=O)C(C#N)C(C(C)=O)C(=O)OCC (configuration not stated)
inactive: [17] 103 % of control | [18] 98 % of control | [1] 97 % of control

Nc1nc(NC(c2ccc(Cl)cc2)c2ccc(Cl)cc2)c2[nH]cnc2n1
inactive: endpoint: mean survival time, dose: 75.0 mg/kg/injection, schedule: Q01DX001 (ip), vehicle: other 103 % of control | endpoint: mean survival time, dose: 150.0 mg/kg/injection, schedule: Q01DX001 (ip), vehicle: other 101 % of control
